# Columns and labels:
# LU99 cells = experiment: CellTiter-Glo viability and CalcuSyn synergy, PRMT5 inhibitor + KIF18A, 6 days; format: cell-based; details: for Combination Fa: 8640 min
# Procedure: (§1) Raw luminescent values were converted to fraction affected (Fa) with the following equation: […]
# Synergy analysis was performed using the CalcuSyn software to determine CI scores based on the drug concentrations used and corresponding Fa values. Results are shown in Tables 13-15 below. *CI Values (Calcusyn): Strong Synergism: 0.1-0.3; Synergism: 0.3-0.7; Moderate Synergism: 0.7-0.85; Slight Synergism: 0.85-0.9; Nearly Additive: 0.9-1.1.
# LU5268 NSCLC xenografts = experiment: Tumor growth inhibition, LU5268 NSCLC xenografts (Example 13); format: in vivo, Female NOD/SCID mice; details: Compound B 100 mg/kg orally once daily + sotorasib 100 mg/kg; versus either single agent alone
# Excerpt: 10 Female NOD/SCID mice were implanted with LU5268 NSCLC tumor xenografts. Mean tumor volumes for each grouping were between 100-200 mm^3. […] Plotted data represents the TGI (tumor growth inhibition), n=10 for each group.
# MIAPACA2 cells = experiment: CellTiter-Glo viability and CalcuSyn synergy, PRMT5 inhibitor + sotorasib, 6 days (Example 15); format: cell-based; design: key: CI<1 synergy, CI=1 additivity, CI>1 antagonism
# Procedure: as §1
# Synergy analysis was performed using the CalcuSyn software to determine CI scores based on the drug concentrations used and corresponding Fa values. Results are shown in Table 24 below. *CI Values (Calcusyn): CI<1 indicates synergy. C=1 indicates additivity. C>1 indicates antagonism.
# [1] = Compound B 0.0729 μM + KIF18A 0.003984 μM
# [2] = Compound B 0.0729 μM + KIF18A 0.005578 μM
# [3] = Compound B 0.0729 μM + KIF18A 0.007809 μM
# [4] = Compound B 0.0729 μM + KIF18A 0.010933 μM
# [5] = Compound B 0.0729 μM + KIF18A 0.015306 μM
# [6] = Compound B 0.0729 μM + KIF18A 0.021429 μM
# [7] = Compound B 0.0729 μM + KIF18A 0.03 μM
compound,measurement,setting,value
Cc1cc2cc(C(=O)N(Cc3ccc(C(F)(F)F)cn3)[C@@H](C)c3ncccn3)ccc2nc1N [Compound B],Computed CI value,LU99 cells; [1],0.937
same,Combination Fa,LU99 cells; [1],0.596
same,Computed CI value,LU99 cells; [2],0.625
same,Combination Fa,LU99 cells; [2],0.7067
same,Computed CI value,LU99 cells; [3],0.753
same,Combination Fa,LU99 cells; [3],0.712
same,Computed CI value,LU99 cells; [4],0.651
same,Combination Fa,LU99 cells; [4],0.7754
same,Computed CI value,LU99 cells; [5],0.797
same,Combination Fa,LU99 cells; [5],0.785
same,Computed CI value,LU99 cells; [6],0.996
same,Combination Fa,LU99 cells; [6],0.7939
same,Computed CI value,LU99 cells; [7],1.312
same,Combination Fa,LU99 cells; [7],0.797
same,anti-tumor activity,LU5268 NSCLC xenografts,significant anti-tumor activity versus either single agent alone
same,CI score,MIAPACA2 cells; Compound B 0.018 μM + sotorasib 0.006 μM,0.68
same,CI score,MIAPACA2 cells; Compound B 0.018 μM + sotorasib 0.010 μM,0.73
same,CI score,MIAPACA2 cells; Compound B 0.018 μM + sotorasib 0.015 μM,0.64
same,CI score,MIAPACA2 cells; Compound B 0.018 μM + sotorasib 0.024 μM,0.80
same,CI score,MIAPACA2 cells; Compound B 0.018 μM + sotorasib 0.039 μM,0.77
same,CI score,MIAPACA2 cells; Compound B 0.018 μM + sotorasib 0.063 μM,0.93
same,CI score,MIAPACA2 cells; Compound B 0.018 μM + sotorasib 0.100 μM,1.25
same,CI score,MIAPACA2 cells; Compound B 0.034 μM + sotorasib 0.006 μM,0.55
same,CI score,MIAPACA2 cells; Compound B 0.034 μM + sotorasib 0.010 μM,0.59
same,CI score,MIAPACA2 cells; Compound B 0.034 μM + sotorasib 0.015 μM,0.56
same,CI score,MIAPACA2 cells; Compound B 0.034 μM + sotorasib 0.024 μM,0.76
same,CI score,MIAPACA2 cells; Compound B 0.034 μM + sotorasib 0.039 μM,0.79
same,CI score,MIAPACA2 cells; Compound B 0.034 μM + sotorasib 0.063 μM,0.83
same,CI score,MIAPACA2 cells; Compound B 0.034 μM + sotorasib 0.100 μM,1.43
same,CI score,MIAPACA2 cells; Compound B 0.064 μM + sotorasib 0.006 μM,0.52
same,CI score,MIAPACA2 cells; Compound B 0.064 μM + sotorasib 0.010 μM,0.65
same,CI score,MIAPACA2 cells; Compound B 0.064 μM + sotorasib 0.015 μM,0.68
same,CI score,MIAPACA2 cells; Compound B 0.064 μM + sotorasib 0.024 μM,0.53
same,CI score,MIAPACA2 cells; Compound B 0.064 μM + sotorasib 0.039 μM,0.72
same,CI score,MIAPACA2 cells; Compound B 0.064 μM + sotorasib 0.063 μM,0.75
same,CI score,MIAPACA2 cells; Compound B 0.064 μM + sotorasib 0.100 μM,1.24
same,CI score,MIAPACA2 cells; Compound B 0.121 μM + sotorasib 0.006 μM,0.63
same,CI score,MIAPACA2 cells; Compound B 0.121 μM + sotorasib 0.010 μM,0.71
same,CI score,MIAPACA2 cells; Compound B 0.121 μM + sotorasib 0.015 μM,0.53
same,CI score,MIAPACA2 cells; Compound B 0.121 μM + sotorasib 0.024 μM,0.64
same,CI score,MIAPACA2 cells; Compound B 0.121 μM + sotorasib 0.039 μM,0.67
same,CI score,MIAPACA2 cells; Compound B 0.121 μM + sotorasib 0.063 μM,0.96
same,CI score,MIAPACA2 cells; Compound B 0.121 μM + sotorasib 0.100 μM,1.02
same,CI score,MIAPACA2 cells; Compound B 0.230 μM + sotorasib 0.006 μM,0.65
same,CI score,MIAPACA2 cells; Compound B 0.230 μM + sotorasib 0.010 μM,0.63
same,CI score,MIAPACA2 cells; Compound B 0.230 μM + sotorasib 0.015 μM,0.55
same,CI score,MIAPACA2 cells; Compound B 0.230 μM + sotorasib 0.024 μM,0.51
same,CI score,MIAPACA2 cells; Compound B 0.230 μM + sotorasib 0.039 μM,0.71
same,CI score,MIAPACA2 cells; Compound B 0.230 μM + sotorasib 0.063 μM,0.72
same,CI score,MIAPACA2 cells; Compound B 0.230 μM + sotorasib 0.100 μM,1.00
same,CI score,MIAPACA2 cells; Compound B 0.437 μM + sotorasib 0.006 μM,0.55
same,CI score,MIAPACA2 cells; Compound B 0.437 μM + sotorasib 0.010 μM,0.70
same,CI score,MIAPACA2 cells; Compound B 0.437 μM + sotorasib 0.015 μM,0.52
same,CI score,MIAPACA2 cells; Compound B 0.437 μM + sotorasib 0.024 μM,0.61
same,CI score,MIAPACA2 cells; Compound B 0.437 μM + sotorasib 0.039 μM,0.65
same,CI score,MIAPACA2 cells; Compound B 0.437 μM + sotorasib 0.063 μM,0.67

# — patent US20260373156A1, “CANCER TREATMENTS USING MTA-COOPERATIVE PRMT5 INHIBITORS” (AMGEN INC., priority 2022, published 2026)
